Laboratory results from the NIST ThermoML archive (doi:10.1016/j.jct.2010.12.027).

Tests used:
[1] = xn = mol fraction of the nth substance listed; conditions: 298.15 K, 101 kPa, Liquid; for viscosity: Capillary tube (Ostwald / Ubbelohde) method; for mass density: Vibrating tube method
[2] = 298.15 K, 101 kPa, Liquid; for viscosity: Capillary tube (Ostwald / Ubbelohde) method; for mass density: Vibrating tube method

CCOC(C)=O [ethyl acetate] + CCCCCCn1cc[n+](C)c1.F[B-](F)(F)F
[1], x2 = 0
Conditions	mass density [kg/m3]	viscosity [mPa·s]
–	894.48	0.437

C1CCOC1 [tetrahydrofuran]
[2]
Conditions	mass density [kg/m3]	viscosity [mPa·s]
–	882.13	0.475

CCCCCCn1cc[n+](C)c1.F[B-](F)(F)F [1-hexyl-3-methylimidazolium tetrafluoroborate] + C1CCOC1
[1]
Conditions	mass density [kg/m3]	viscosity [mPa·s]
x1 = 0.0498	922.89	0.891
x1 = 0.1008	956.61	1.564
x1 = 0.203	1007.44	3.869
x1 = 0.2976	1041.06	7.658
x1 = 0.3461	1054.83	10.44
x1 = 0.3965	1067.37	13.93
x1 = 0.4457	1078.09	18.37
x1 = 0.5003	1088.63	24.9
x1 = 0.5548	1097.81	33.17
x1 = 0.6083	1106.02	42.68
x1 = 0.7025	1118.37	65.77
x1 = 0.7992	1129	97.79
x1 = 0.8925	1137.77	141.64
x1 = 1	1146.7	195.37

CCC(C)=O [butanone] + CCCCCCn1cc[n+](C)c1.F[B-](F)(F)F
[1], x2 = 0
Conditions	mass density [kg/m3]	viscosity [mPa·s]
–	799.87	0.388

CCCCN [1-butanamine] + CCCCCCn1cc[n+](C)c1.F[B-](F)(F)F
[1]
Conditions	mass density [kg/m3]	viscosity [mPa·s]
x2 = 0	732.88	0.476
x2 = 0.0492	778.02	0.889
x2 = 0.0994	809.01	1.433
x2 = 0.1997	888.25	3.137
x2 = 0.3002	943.91	6.183
x2 = 0.3525	968.66	8.532
x2 = 0.4013	989.49	11.16
x2 = 0.4492	1008.25	14.68
x2 = 0.5037	1027.64	19.56
x2 = 0.5524	1043.6	25.39
x2 = 0.6009	1058.22	32.05
x2 = 0.7036	1085.8	53.63
x2 = 0.7873	1105.23	76.62
x2 = 0.8787	1124.35	117.48

CCOC(C)=O [ethyl acetate]
[2]
Conditions	mass density [kg/m3]	viscosity [mPa·s]
–	894.48	0.437

CCCCN [1-butanamine]
[2]
Conditions	mass density [kg/m3]	viscosity [mPa·s]
–	732.88	0.476

CCCCCCn1cc[n+](C)c1.F[B-](F)(F)F [1-hexyl-3-methylimidazolium tetrafluoroborate] + CCOC(C)=O
[1]
Conditions	mass density [kg/m3]	viscosity [mPa·s]
x1 = 0.0498	925.56	0.738
x1 = 0.1	952.69	1.188
x1 = 0.2027	997.78	2.674
x1 = 0.302	1031.52	5.221
x1 = 0.3475	1044.35	6.846
x1 = 0.3983	1057.37	9.328
x1 = 0.4488	1068.89	12.31
x1 = 0.501	1079.8	16.47
x1 = 0.5487	1088.62	21.49
x1 = 0.6022	1097.8	28.48
x1 = 0.7075	1113.73	48.11
x1 = 0.8066	1126.46	80.43
x1 = 0.8908	1135.69	119.88
x1 = 1	1146.7	195.37

CCCCCCn1cc[n+](C)c1.F[B-](F)(F)F [1-hexyl-3-methylimidazolium tetrafluoroborate]
[2]
Conditions	mass density [kg/m3]	viscosity [mPa·s]
–	1146.7	195.37

CCCCCCn1cc[n+](C)c1.F[B-](F)(F)F [1-hexyl-3-methylimidazolium tetrafluoroborate] + CCC(C)=O
[1]
Conditions	mass density [kg/m3]	viscosity [mPa·s]
x1 = 0.0492	845.71	0.6
x1 = 0.0988	889.12	0.914
x1 = 0.2011	946.15	2.059
x1 = 0.2989	991.57	4.063
x1 = 0.3482	1010.53	5.578
x1 = 0.3972	1027.28	7.507
x1 = 0.4605	1046.8	11.08
x1 = 0.4981	1057.05	13.67
x1 = 0.55	1070.3	18.57
x1 = 0.6057	1082.75	24.46
x1 = 0.7054	1102.84	43.38
x1 = 0.7955	1119.38	69.4
x1 = 0.8931	1132.37	110.34
x1 = 1	1146.7	195.37

CCCCCCn1cc[n+](C)c1.F[B-](F)(F)F [1-hexyl-3-methylimidazolium tetrafluoroborate] + CCCCN
[1], x1 = 1
Conditions	mass density [kg/m3]	viscosity [mPa·s]
–	1146.7	195.37

CCC(C)=O [butanone]
[2]
Conditions	mass density [kg/m3]	viscosity [mPa·s]
–	799.87	0.388

C1CCOC1 [tetrahydrofuran] + CCCCCCn1cc[n+](C)c1.F[B-](F)(F)F
[1], x2 = 0
Conditions	mass density [kg/m3]	viscosity [mPa·s]
–	882.13	0.475
